Assay results published in patent US8618299B2, “Azinone-substituted azapolycycle MCH-1 antagonists, methods of making, and use thereof” (Albany Molecular Research, Inc., priority 2009, dated 2013).
pKi: −log10 of the molar value. Counter-ions that a name gives are not always drawn.

Biological target: human MCH-1 receptor (Homo sapiens (Human), UniProt Q99705)
Experiment: Binding assay for human melanin-concentrating hormone (MCH1) receptor
Details: membranes from CHO-K1 cells expressing human MCH1 receptor; 1.4 nM [3H]-labeled radioligand, 60 min at 25° C., pH 7.4; Ki from Cheng Prusoff equation
Procedure: Binding Assay for Human Melanin-Concentrating Hormone (MCH1) Receptor
Evaluation of the affinity of compounds for the human MCH-1 receptor was accomplished using 4-(3,4,5-tritritiumbenzyloxy)-1-(1-(2-(pyrrolidin-1-yl)ethyl)-1H-indazol-5-yl)pyridin-2(1H)-one and membranes prepared from stable CHO-K1 cells expressing the human MCH1 receptor obtained from Euroscreen (Batch 1138). Cell membrane homogenates (8.92 μg protein) were incubated for 60 min at 25° C. with 1.4 nM of the [^3H]-labeled compound in the absence or presence of the test compound in 50 mM Tris-HCl buffer, pH 7.4. Nonspecific binding was determined in the presence of 50 μM 1-(5-(4-cyanophenyl)bicyclo[3.1.0]hexan-2-yl)-3-(4-fluoro-3-(trifluoromethyl)phenyl)-1-(3-(4-methylpiperazin-1-yl)propyl)urea. Following incubation, the samples were filtered rapidly under vacuum through Skatron 11731 filters, pre-soaked in 0.5% polyethylenimine, and washed with ice-cold 50 mM Tris-HCl buffer, pH 7.4, (wash setting 9,9,0) using a Skatron cell harvester. The filters were counted for radioactivity in a liquid scintillation counter (Tri-Carb 2100TR, Packard) using a scintillation cocktail (Ultima Gold MV, Perkin Elmer).
The results are expressed as a percent inhibition of the control radioligand specific binding. The IC50 value (concentration causing a half-maximal inhibition of control specific binding) and Hill coefficient (nH) were determined by non-linear regression analysis of the competition curve using Hill equation curve fitting. The inhibition constant (Ki) was calculated from the Cheng Prusoff equation: (Ki=IC50/(1+(L/KD)), where L=concentration of radioligand in the assay, and KD=affinity of the radioligand for the receptor.

Chain of human MCH-1 receptor (Q99705 whole entry): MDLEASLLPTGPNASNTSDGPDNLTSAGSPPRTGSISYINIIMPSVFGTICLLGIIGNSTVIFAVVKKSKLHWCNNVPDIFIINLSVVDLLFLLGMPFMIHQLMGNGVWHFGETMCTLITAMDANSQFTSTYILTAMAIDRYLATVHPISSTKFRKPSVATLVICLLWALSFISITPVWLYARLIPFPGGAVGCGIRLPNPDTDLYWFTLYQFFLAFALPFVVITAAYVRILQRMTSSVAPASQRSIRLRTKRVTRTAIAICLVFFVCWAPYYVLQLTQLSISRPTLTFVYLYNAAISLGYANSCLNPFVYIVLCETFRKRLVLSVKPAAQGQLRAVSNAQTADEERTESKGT

Q: With `Cn1c2c(c3ccc(-n4ccc(OCc5ccccc5)cc4=O)cc31)CCN1CCCCCC21` (stereo not shown) [Example 10, 4-(Benzyloxy)-1-(13-methyl-2,3,4,5,7,8,13,13b-octahydro-1H-pyrido[1,2-a]azepino[10,9-b]indol-10-yl)pyridin-2(1H)-one Hydrochloride] as the molecule, how does the pKi read?
A: Its pKi is 7.33.

Q: With `Cc1ccc(-c2ccn(-c3ccc4c5c(n(C)c4c3)CC3CCCN3C5)c(=O)c2)cn1` (stereo not shown) [Example 13, 1-(10-Methyl-2,3,5,10,11,11a-hexahydro-1H-indolizino[7,6-b]indol-8-yl)-4-(6-methylpyridin-3-yl)pyridin-2(1H)-one Hydrochloride] as the molecule, how does the pKi read?
A: The pKi was 7.23.

Q: With `Cc1ccc(-c2ccn(-c3ccc4c5c(n(C)c4c3)CCN3CCCC53)c(=O)c2)cn1` (stereo not shown) [Example 15, 1-(7-Methyl-2,3,5,6,7,11c-hexahydro-1H-indolizino[7,8-b]indol-9-yl)-4-(6-methylpyridin-3-yl)pyridin-2(1H)-one Hydrochloride] as the molecule, how does the pKi read?
A: The pKi was 7.12.

Q: With `Cn1c2c(c3ccc(-n4ccc(OCc5ccc(F)cn5)cc4=O)cc31)C1CCCN1CC2` (stereo not shown) [Example 19, 4-((5-Fluoropyridin-2-yl)methoxy)-1-(7-methyl-2,3,5,6,7,11c-hexahydro-1H-indolizino[7,8-b]indol-9-yl)pyridin-2(1H)-one Dihydrochloride] as the molecule, how does the pKi read?
A: Its pKi is 7.96.

Q: With `Cc1ccc(COc2ccn(-c3ccc4c5c(n(C)c4c3)CCN3CCCC53)c(=O)c2)cn1` (stereo not shown) [Example 20, 1-(7-Methyl-2,3,5,6,7,11c-hexahydro-1H-indolizino[7,8-b]indol-9-yl)-4-((6-methylpyridin-3-yl)methoxy)pyridin-2(1H)-one Dihydrochloride] as the molecule, how does the pKi read?
A: Its pKi is 7.89.

Q: With `Cn1c2c(c3ccc(-n4ccc(OCc5ccc(F)cn5)cc4=O)cc31)C1CCCCN1CC2` (stereo not shown) [Example 21, 4-((5-Fluoropyridin-2-yl)methoxy)-1-(8-methyl-1,2,3,4,6,7,8,12c-octahydroindolo[3,2-a]quinolizin-10-yl)pyridin-2(1H)-one Hydrochloride] as the molecule, how does the pKi read?
A: Its pKi is 8.08.

Q: With `Cc1ccc(COc2ccn(-c3ccc4c5c(n(C)c4c3)CCN3CCCCC53)c(=O)c2)cn1` (stereo not shown) [Example 23, 1-(8-Methyl-1,2,3,4,6,7,8,12c-octahydroindolo[3,2-a]quinolizin-10-yl)-4-((6-methylpyridin-3-yl)methoxy)pyridin-2(1H)-one Dihydrochloride] as the molecule, how does the pKi read?
A: Its pKi is 7.72.

Q: With `O=c1cc(OCc2ccccc2)ccn1-c1ccc2c3c([nH]c2c1)CCN1CCCC31` (stereo not shown) [Example 24, 4-(Benzyloxy)-1-(2,3,5,6,7,11c-hexahydro-1H-indolizino[7,8-b]indol-9-yl)pyridin-2(1H)-one Hydrochloride] as the molecule, how does the pKi read?
A: Its pKi is 8.22.

Q: With `O=c1cc(OCc2ccc(F)cn2)ccn1-c1ccc2c3c([nH]c2c1)CCN1CCCC31` (stereo not shown) [Example 25, 4-((5-Fluoropyridin-2-yl)methoxy)-1-(2,3,5,6,7,11c-hexahydro-1H-indolizino[7,8-b]indol-9-yl)pyridin-2(1H)-one Hydrochloride] as the molecule, how does the pKi read?
A: The pKi was 7.85.

Q: With `Cc1ccc(COc2ccn(-c3ccc4c5c(n(C)c4c3)CC3CCCN3C5)c(=O)c2)cn1` (stereo not shown) [Example 31, 1-(10-Methyl-2,3,5,10,11,11a-hexahydro-1H-indolizino[7,6-b]indol-8-yl)-4-((6-methylpyridin-3-yl)methoxy)pyridin-2(1H)-one Hydrochloride] as the molecule, how does the pKi read?
A: The pKi was 7.66.

Q: With `Cc1ccc(COc2ccn(-c3ccc4c5c(n(C)c4c3)CC3CCCCN3C5)c(=O)c2)cn1` (stereo not shown) [Example 33, 1-(5-Methyl-5,6,6a,7,8,9,10,12-octahydroindolo[2,3-b]quinolizin-3-yl)-4-((6-methylpyridin-3-yl)methoxy)pyridin-2(1H)-one Dihydrochloride] as the molecule, how does the pKi read?
A: Its pKi is 7.51.

Q: With `Cc1ccc(-c2ccn(-c3ccc4c5c(n(C)c4c3)CC3CCCCN3C5)c(=O)c2)cn1` (stereo not shown) [Example 35, 1-(5-Methyl-5,6,6a,7,8,9,10,12-octahydroindolo[2,3-b]quinolizin-3-yl)-4-(6-methylpyridin-3-yl)pyridin-2(1H)-one Dihydrochloride] as the molecule, how does the pKi read?
A: The pKi was 6.71.

Q: With `O=c1cc(OCc2ccc(F)cn2)ccn1-c1ccc2c3c([nH]c2c1)CC1CCCN1C3` (stereo not shown) [Example 40, 4-((5-Fluoropyridin-2-yl)methoxy)-1-(2,3,5,10,11,11a-hexahydro-1H-indolizino[7,6-b]indol-8-yl)pyridin-2(1H)-one Hydrochloride] as the molecule, how does the pKi read?
A: The pKi was 7.85.

Q: With `O=c1cc(OCc2ccc(Cl)cc2F)ccn1-c1ccc2c3c([nH]c2c1)CC1CCCN1C3` (stereo not shown) [Example 42, 4-(4-Chloro-2-fluorobenzyloxy)-1-(2,3,5,10,11,11a-hexahydro-1H-indolizino[7,6-b]indol-8-yl)pyridin-2(1H)-one Hydrochloride] as the molecule, how does the pKi read?
A: Its pKi is 7.72.

Q: With `Cn1c2c(c3ccc(-n4ccc(OCc5ccc(F)cn5)cc4=O)cc31)CCN1CCCC21` (stereo not shown) [Example 43, 4-((5-Fluoropyridin-2-yl)methoxy)-1-(11-methyl-2,3,5,6,11,11b-hexahydro-1H-indolizino[8,7-b]indol-9-yl)pyridin-2(1H)-one Dihydrochloride] as the molecule, how does the pKi read?
A: Its pKi is 7.59.

Q: With `Cn1c2c(c3ccc(-n4ccc(OCc5ccc(F)cn5)cc4=O)nc31)C1CCCN1CC2` (stereo not shown) [Example 45, 4-((5-Fluoropyridin-2-yl)methoxy)-1-(7-methyl-2,3,5,6,7,11c-hexahydro-1H-pyrido[3′,2′:4,5]pyrrolo[2,3-g]indolizin-9-yl)pyridin-2(1H)-one Hydrochloride] as the molecule, how does the pKi read?
A: Its pKi is 7.68.

Same assay, conditions: membranes from CHO-K1 cells expressing human MCH1 receptor; 1.4 nM [3H]-labeled radioligand, 60 min at 25° C., pH 7.4; Ki from Cheng Prusoff equation; Dihydrochloride

Q: With `Cn1c2c(c3ccc(-n4ccc(OCc5ccc(F)cn5)cc4=O)cc31)CN1CCCCC1C2` (stereo not shown) [Example 37, 4-((5-Fluoropyridin-2-yl)methoxy)-1-(5-methyl-5,6,6a,7,8,9,10,12-octahydroindolo[2,3-b]quinolizin-3-yl)pyridin-2(1H)-one Dihydrochloride] as the molecule, how does the pKi read?
A: The pKi was 8.00.

System: not given
Experiment: not given
Details: not given

Q: Which melting point does the source give for `Cn1c2c(c3ccc(-n4ccc(OCc5ccc(F)cn5)cc4=O)cc31)CN1CCCC1C2` (stereo not shown) (as salt: hydrochloride) [Example 12, 4-((5-Fluoropyridin-2-yl)methoxy)-1-(10-methyl-2,3,5,10,11,11a-hexahydro-1H-indolizino[7,6-b]indol-8-yl)pyridin-2(1H)-one Hydrochloride] here?
A: The melting point was 290 to 293 °C.

Q: With `Cc1ccc(-c2ccn(-c3ccc4c5c(n(C)c4c3)CC3CCCN3C5)c(=O)c2)cn1` (stereo not shown) (as salt: hydrochloride) [Example 13, 1-(10-Methyl-2,3,5,10,11,11a-hexahydro-1H-indolizino[7,6-b]indol-8-yl)-4-(6-methylpyridin-3-yl)pyridin-2(1H)-one Hydrochloride] as the molecule, how does the melting point read?
A: Its melting point is 305 °C (dec.).

Q: For `Cc1ccc(-c2ccn(-c3ccc4c5c(n(C)c4c3)CCN3CCCC53)c(=O)c2)cn1` (stereo not shown) (as salt: hydrochloride) [Example 15, 1-(7-Methyl-2,3,5,6,7,11c-hexahydro-1H-indolizino[7,8-b]indol-9-yl)-4-(6-methylpyridin-3-yl)pyridin-2(1H)-one Hydrochloride], which melting point is on record?
A: Its melting point is 280 to 283 °C.

Q: With `Cn1c2c(c3ccc(-n4ccc(OCc5ccc(F)cn5)cc4=O)cc31)C1CCCN1CC2` (stereo not shown) (as salt: hydrochloride) [Example 19, 4-((5-Fluoropyridin-2-yl)methoxy)-1-(7-methyl-2,3,5,6,7,11c-hexahydro-1H-indolizino[7,8-b]indol-9-yl)pyridin-2(1H)-one Dihydrochloride] as the molecule, how does the melting point read?
A: The melting point was 240 to 243 °C.

Q: For `Cc1ccc(COc2ccn(-c3ccc4c5c(n(C)c4c3)CCN3CCCC53)c(=O)c2)cn1` (stereo not shown) (as salt: hydrochloride) [Example 20, 1-(7-Methyl-2,3,5,6,7,11c-hexahydro-1H-indolizino[7,8-b]indol-9-yl)-4-((6-methylpyridin-3-yl)methoxy)pyridin-2(1H)-one Dihydrochloride], which melting point is on record?
A: The melting point was 280 to 282 °C.

Q: For `Cn1c2c(c3ccc(-n4ccc(OCc5ccc(F)cn5)cc4=O)cc31)C1CCCCN1CC2` (stereo not shown) (as salt: hydrochloride) [Example 21, 4-((5-Fluoropyridin-2-yl)methoxy)-1-(8-methyl-1,2,3,4,6,7,8,12c-octahydroindolo[3,2-a]quinolizin-10-yl)pyridin-2(1H)-one Hydrochloride], which melting point is on record?
A: The melting point was 256 to 258 °C.

Q: Which melting point does the source give for `Cc1ccc(COc2ccn(-c3ccc4c5c(n(C)c4c3)CCN3CCCCC53)c(=O)c2)cn1` (stereo not shown) (as salt: hydrochloride) [Example 23, 1-(8-Methyl-1,2,3,4,6,7,8,12c-octahydroindolo[3,2-a]quinolizin-10-yl)-4-((6-methylpyridin-3-yl)methoxy)pyridin-2(1H)-one Dihydrochloride] here?
A: Its melting point is 210 to 214 °C.

Q: Which melting point does the source give for `Cc1ccc(COc2ccn(-c3ccc4c5c(n(C)c4c3)CC3CCCN3C5)c(=O)c2)cn1` (stereo not shown) (as salt: hydrochloride) [Example 31, 1-(10-Methyl-2,3,5,10,11,11a-hexahydro-1H-indolizino[7,6-b]indol-8-yl)-4-((6-methylpyridin-3-yl)methoxy)pyridin-2(1H)-one Hydrochloride] here?
A: Its melting point is 260 to 263 °C.
